PMC8160210, “Single tryptophan Y160W mutant of homooligomeric E. coli purine nucleoside phosphorylase implies that dimers forming the hexamer are functionally not equivalent” (Scientific Reports, 2021)
Like-named read-outs stand apart in the source and are kept apart here.

How the values were obtained:
Y160W mutant/Pi complex = target: T1, Y160W mutant/Pi complex (Escherichia coli, UniProt P0ABP8, Y161W); experiment: Calorimetric (ITC) titrations with formycin A; design: species or system E. coli
T1 construct: made in house; host or cells: E. coli DH5α-T1
T1 sequence (P0ABP8 2-239 Y161W, one chain of several): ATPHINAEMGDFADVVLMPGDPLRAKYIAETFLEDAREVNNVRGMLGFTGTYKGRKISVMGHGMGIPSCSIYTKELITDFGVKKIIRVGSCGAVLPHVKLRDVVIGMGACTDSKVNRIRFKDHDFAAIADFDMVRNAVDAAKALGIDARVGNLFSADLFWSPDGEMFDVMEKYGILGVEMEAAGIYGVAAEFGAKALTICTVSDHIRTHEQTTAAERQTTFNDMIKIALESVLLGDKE
Experimental: (§1) The isothermal titration experiments were performed on the MicroCal iTC200 (Malvern) microcalorimeter. […] All experiments were carried out at 25°C. For the WT protein series of three calorimetric titrations, with protein concentration in the range of 70 to 800 μM, for the Y160W mutant series of four titration with protein concentration in the range of 300 μM to 1.3 mM were performed. Samples of each protein used for these series came from a single preparation. Ligand samples were 8–12 times more concentrated than the protein sample, in order to achieve a diverse ligand/protein molar ratio during titration and thus better explore binding curves. In some ITC experiments, in order to sample the lower plateau region more accurately, several initial points were measured with less ligand volume added at each step than used in the subsequent titration points measurements. An example of the ITC data is shown in the Supplementary Information (Figure S6). Raw thermograms were analysed with NITPIC[43]. Global analysis of titration curves was performed with Sedphat[20],[21].
(§2) Three models were taken into account in analysis of binding curves: model with one (first equation below), two (first two equations) and three binding sites. P+L⇔PLwithKd1PL+L⇔PLLwithKd2PLL+L⇔PLLLwithKd3
(§3) The model with one binding site is based on the assumption that all monomers are equivalent, and there is no cooperation between them. In the model with two binding sites the basic functional unit of the protein is a dimer, possible non-equivalence of binding sites or cooperativity between active sites in the dimer are taken into account (in the case of no cooperativity dissociation constants should be related statistically: Kd2 = 4Kd1), the dimers within hexamer are equivalent. The model with three binding sites is based on the crystallographic structures of binary and ternary complexes of PNP with ligands, where two of the dimers are in the “open-closed” conformation, but the third dimer is symmetrical, in the “open-open” conformation. Thus, active sites in the open conformation belonging to “open-closed” and “open-open” dimer may not be equivalent. This model takes into account possibility of cooperation between all monomers within a hexameric molecule of the protein (in the case of no cooperativity dissociation constants should be related statistically: Kd3 = 9Kd1, Kd2 = 3Kd1).
(§4) Titration series were analysed globally, always starting from the simplest, one-binding-site model. […] For all tested models the Akaike information criterion[23] was also calculated. Generally both criteria used in the discrimination analysis were pointing the same model as best describing the data. The only exception was thermophoretic titration of the WT protein with formycin A, and it is described in details in the Results. Analysed models were fitted to the raw data, whereas graphs presented in this study were prepared from the normalised data and the fitted curves. The parameters of the fit are dissociation constants and responses of the system. Responses are defined as changes in a measured physical quantity related to the formation of subsequent protein–ligand complexes: intrinsic protein fluorescence intensity, fluorescence intensity of the dye, heat and ellipticity for fluorimetric, thermophoretic, calorimetric and CD titrations, respectively. Responses are normalised for the protein concentration present in the titration, thus giving molar coefficients.

WT PNP/Pi complex = target: T2, WT PNP/Pi complex (Escherichia coli, UniProt P0ABP8); experiment: Calorimetric (ITC) titrations with formycin A; design: species or system E. coli
T2 construct: made in house
Experimental: as §1, §2, §3, §4

WT E. coli PNP [1] = target: T3, WT E. coli PNP (Escherichia coli, UniProt P0ABP8); experiment: Thermophoretic (MST) titrations with phosphate; conditions: two-binding-site model, 25 °C
T3 construct: made in house
T3 sequence (P0ABP8 2-239 limits assumed): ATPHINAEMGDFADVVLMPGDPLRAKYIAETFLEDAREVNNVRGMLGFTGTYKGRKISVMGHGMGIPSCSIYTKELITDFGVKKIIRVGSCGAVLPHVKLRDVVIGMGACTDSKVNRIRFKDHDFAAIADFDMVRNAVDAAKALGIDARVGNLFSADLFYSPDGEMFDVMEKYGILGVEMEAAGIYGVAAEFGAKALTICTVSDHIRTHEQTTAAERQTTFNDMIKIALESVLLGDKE
Experimental: Measurements were performed with Monolith NT115 (NanoTemper). Enzyme was labelled with NT647 fluorescent dye (NanoTemper) according to the protocol provided by the manufacturer. Labelled proteins show fluorescence excitation and emission maxima of approximately 650 and 670 nm, respectively. The series of titrations were performed at a constant protein concentration. Both proteins (WT and mutant), and ligands were dissolved in 50 mM Tris/HCl pH 7.6 buffer, measurements were performed at 25 °C. […] In the pre-experiments, it was carefully checked for both proteins, WT and Y160W mutant whether any sign of aggregation or inactivation occurs, and if mutant behaviour is similar to that of the WT enzyme. […]
For experiments of the binary complex formation with phosphate, curves were measured at four different powers of the heating laser. Two to five titrations at each heating power were measured, and curves were averaged for a particular heating power. […] This is an area inaccessible in fluorescence titration due to the quenching of the protein fluorescence at such a high ionic strength of the solution. […]
Titration series were analysed globally, always starting from the simplest, one-binding-site model. […] For all tested models the Akaike information criterion[23] was also calculated. […]

WT E. coli PNP [2] = target: T3, WT E. coli PNP; design: method as in PMID 30337572; conditions: phosphate as variable substrate, 250 μM m^7Guo, allostery Eq. (2), cited from earlier work

| SMILES | Kd (Y160W mutant/Pi complex; Kd1 ± SD, three-binding-site model, 50 mM phosphate, pH 7.6, 25 °C) | Kd (Y160W mutant/Pi complex; Kd3 ± SD, three-binding-site model, 50 mM phosphate, pH 7.6, 25 °C) | Kd (Y160W mutant/Pi complex; read-out: Kd2 ± SD, three-binding-site model, 50 mM phosphate, pH 7.6, 25 °C) | Kd (WT PNP/Pi complex; Kd1 ± SD, three-binding-site model, 50 mM phosphate, pH 7.6, 25 °C, values to be treated as estimates) | Kd (WT PNP/Pi complex; Kd3 ± SD, three-binding-site model, 50 mM phosphate, pH 7.6, 25 °C, values to be treated as estimates) | Kd (WT PNP/Pi complex; read-out: Kd2 ± SD, three-binding-site model, 50 mM phosphate, pH 7.6, 25 °C, values to be treated as estimates) | Kd (WT E. coli PNP [1]; 50 mM Tris/HCl pH 7.6, read-out: Kd1 ± SD) | Kd (WT E. coli PNP [1]; 50 mM Tris/HCl pH 7.6, read-out: Kd3 ± SD) | Km (WT E. coli PNP [2]; pH 7.0, 25 °C) | Vmax (WT E. coli PNP [2]; pH 7.0, 25 °C) | a (cooperativity coefficient, KM2 = aKM1) (WT E. coli PNP [2]) | b (cooperativity coefficient, Vmax2 = bVmax1) (WT E. coli PNP [2]) |
| --- | --- | --- | --- | --- | --- | --- | --- | --- | --- | --- | --- | --- |
| Nc1ncnc2c([C@@H]3O[C@H](CO)[C@@H](O)[C@H]3O)[nH]nc12 [FA, Formycin A] | 6.75 µM | 655 µM | 149 µM | 8.9 µM | 812 µM | 55 µM | – | – | – | – | – | – |
| O=P(O)(O)O [Pi, Orthophosphate] | – | – | – | – | – | – | 7 µM | 1640 µM | 15 ± 4 µM | 10.8 ± 0.7 U/mg | 267 ± 232 | 0.76 ± 0.06 |
